# Test results reported in patent publication US9980943B2, “Methods of treating muscular dystrophy” (BOARD OF REGENTS OF THE NEVADA SYSTEM OF HIGHER EDUCATION, …, priority 2013, dated 2018).
# How the values were obtained:
# Assay type in all cases: cell-based, mouse
# [1] = test system: α7 integrin (LacZ reporter in α7+/LacZ myotubes); assay: Myotube α7 integrin FDG assay (Burkin assay in myotubes, 96-well); conditions: for Burkin Assay in Myotubes, value relative to DMSO: SU9516 analogs, 96-well, N=3-6
# [2] = test system: α7 integrin (LacZ reporter in α7βgal+/− myoblasts); assay: Myoblast α7+/LacZ integrin FDG assay (Burkin assay in myoblasts, 96-well); conditions: 96-well; for Burkin Assay in Myoblasts, signal relative to DMSO: α7+/LacZ myoblasts; for Burkin Assay in Myoblasts, value relative to DMSO: SU9516 analogs, N=3-6
# [3] = test system: β-galactosidase in CMV-LacZ C2C12 myotubes; assay: CMV-LacZ secondary screen in C2C12 myotubes (β-Gal stabilizing assay); conditions: for CMV-LACZ in Myotubes, signal relative to DMSO: C2C12 CMV-LacZ myotubes, fold relative to DMSO; for CMV-LACZ in Myotubes, value relative to DMSO: SU9516 analogs, C2C12 CMV-LacZ, N=2
# Summary of the method: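 First, C2C12 myoblasts were transfected with a linearized CMV-LACZ vector and clonal lines selected by FDG β-gal assay. Then cells were exposed to compounds at 0.5, 1, 5, 10, 20 and 40 μM in 96-well format, two replicates each, and β-gal measured.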
# [4] = test system: β-galactosidase in CMV-LacZ C2C12 myoblasts; assay: CMV-LacZ secondary screen in C2C12 myoblasts (β-Gal stabilizing assay); conditions: for CMV-LACZ in Myoblasts (β-galactosidase activity relative to DMSO): CMV-LacZ C2C12 myoblasts; for CMV-LACZ in Myoblasts, value relative to DMSO: SU9516 analogs, C2C12 CMV-LacZ, N=2
# Summary of the method: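 A secondary screen identifies compounds that stabilize β-gal independently of the native promoter, using CMV-LacZ C2C12 cells. Curves span 0.5–40 μM at six levels, in duplicate.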
structure (smiles),measurement,setting,value
CCNC(=O)C(=O)Nc1cc2c3c(c1)CCN3C(=O)CC2 [MLS001167798-01],"Burkin Assay in Myotubes, α7 integrin LacZ reporter signal relative to DMSO",[1]; 0.5 uM,1.051
same,"Burkin Assay in Myotubes, α7 integrin LacZ reporter signal relative to DMSO",[1]; 1 uM,0.9243
same,"Burkin Assay in Myotubes, α7 integrin LacZ reporter signal relative to DMSO",[1]; 5 uM,1.118
same,"Burkin Assay in Myotubes, α7 integrin LacZ reporter signal relative to DMSO",[1]; 10 uM,0.9382
same,"Burkin Assay in Myotubes, α7 integrin LacZ reporter signal relative to DMSO",[1]; 20 uM,0.7983
same,"Burkin Assay in Myotubes, α7 integrin LacZ reporter signal relative to DMSO",[1]; 40 uM,0.7231
same,"Burkin Assay in Myoblasts, signal relative to DMSO",[2]; 0.5 uM,1.058
same,"Burkin Assay in Myoblasts, signal relative to DMSO",[2]; 1 uM,1.166
same,"Burkin Assay in Myoblasts, signal relative to DMSO",[2]; 5 uM,1.277
same,"Burkin Assay in Myoblasts, signal relative to DMSO",[2]; 10 uM,1.064
same,"Burkin Assay in Myoblasts, signal relative to DMSO",[2]; 20 uM,1.051
same,"Burkin Assay in Myoblasts, signal relative to DMSO",[2]; 40 uM,1.006
same,"CMV-LACZ in Myotubes, signal relative to DMSO",[3]; 0.5 uM,0.9143
same,"CMV-LACZ in Myotubes, signal relative to DMSO",[3]; 1 uM,0.9295
same,"CMV-LACZ in Myotubes, signal relative to DMSO",[3]; 5 uM,1.1987
same,"CMV-LACZ in Myotubes, signal relative to DMSO",[3]; 10 uM,1.2238
same,"CMV-LACZ in Myotubes, signal relative to DMSO",[3]; 20 uM,1.3337
same,"CMV-LACZ in Myotubes, signal relative to DMSO",[3]; 40 uM,1.2800
same,CMV-LACZ in Myoblasts (β-galactosidase activity relative to DMSO),[4]; 0.5 uM,1.0342
same,CMV-LACZ in Myoblasts (β-galactosidase activity relative to DMSO),[4]; 1 uM,0.7750
same,CMV-LACZ in Myoblasts (β-galactosidase activity relative to DMSO),[4]; 5 uM,1.1822
same,CMV-LACZ in Myoblasts (β-galactosidase activity relative to DMSO),[4]; 10 uM,1.1494
same,CMV-LACZ in Myoblasts (β-galactosidase activity relative to DMSO),[4]; 20 uM,1.2196
same,CMV-LACZ in Myoblasts (β-galactosidase activity relative to DMSO),[4]; 40 uM,1.1452
CN1CCN(c2ccccc2/C=C2/C(=O)Nc3ccccc32)CC1 [MLS001182377-01],"Burkin Assay in Myotubes, value relative to DMSO",[1]; 0.5 uM,1.015
same,"Burkin Assay in Myotubes, value relative to DMSO",[1]; 1 uM,1.021
same,"Burkin Assay in Myotubes, value relative to DMSO",[1]; 5 uM,0.9372
same,"Burkin Assay in Myotubes, value relative to DMSO",[1]; 10 uM,0.9389
same,"Burkin Assay in Myotubes, value relative to DMSO",[1]; 20 uM,0.8654
same,"Burkin Assay in Myotubes, value relative to DMSO",[1]; 40 uM,0.9149
same,"Burkin Assay in Myoblasts, value relative to DMSO",[2]; 0.5 uM,1.179
same,"Burkin Assay in Myoblasts, value relative to DMSO",[2]; 1 uM,1.045
same,"Burkin Assay in Myoblasts, value relative to DMSO",[2]; 5 uM,0.915
same,"Burkin Assay in Myoblasts, value relative to DMSO",[2]; 10 uM,0.9061
same,"Burkin Assay in Myoblasts, value relative to DMSO",[2]; 20 uM,0.8744
same,"Burkin Assay in Myoblasts, value relative to DMSO",[2]; 40 uM,0.6176
same,"CMV-LACZ in Myotubes, value relative to DMSO",[3]; 0.5 uM,0.7762
same,"CMV-LACZ in Myotubes, value relative to DMSO",[3]; 1 uM,0.8105
same,"CMV-LACZ in Myotubes, value relative to DMSO",[3]; 5 uM,0.9608
same,"CMV-LACZ in Myotubes, value relative to DMSO",[3]; 10 uM,1.0589
same,"CMV-LACZ in Myotubes, value relative to DMSO",[3]; 20 uM,1.0305
same,"CMV-LACZ in Myotubes, value relative to DMSO",[3]; 40 uM,1.0263
same,"CMV-LACZ in Myoblasts, value relative to DMSO",[4]; 0.5 uM,1.1229
same,"CMV-LACZ in Myoblasts, value relative to DMSO",[4]; 1 uM,1.1646
same,"CMV-LACZ in Myoblasts, value relative to DMSO",[4]; 5 uM,0.9113
same,"CMV-LACZ in Myoblasts, value relative to DMSO",[4]; 10 uM,0.9294
same,"CMV-LACZ in Myoblasts, value relative to DMSO",[4]; 20 uM,0.4441
same,"CMV-LACZ in Myoblasts, value relative to DMSO",[4]; 40 uM,0.4170
CCOC(=O)C1=C(CC)Nc2ccccc2N=C1NC(=O)c1ccc(OC)c(S(=O)(=O)N2CCCCC2C)c1 (stereo not drawn) [MLS000776409-01],"Burkin Assay in Myotubes, α7 integrin LacZ reporter signal relative to DMSO",[1]; 0.5 uM,0.8925
same,"Burkin Assay in Myotubes, α7 integrin LacZ reporter signal relative to DMSO",[1]; 1 uM,1.029
same,"Burkin Assay in Myotubes, α7 integrin LacZ reporter signal relative to DMSO",[1]; 5 uM,0.882
same,"Burkin Assay in Myotubes, α7 integrin LacZ reporter signal relative to DMSO",[1]; 10 uM,0.9284
same,"Burkin Assay in Myotubes, α7 integrin LacZ reporter signal relative to DMSO",[1]; 20 uM,0.8949
same,"Burkin Assay in Myotubes, α7 integrin LacZ reporter signal relative to DMSO",[1]; 40 uM,0.8056
same,"Burkin Assay in Myoblasts, signal relative to DMSO",[2]; 0.5 uM,1.1194
same,"Burkin Assay in Myoblasts, signal relative to DMSO",[2]; 1 uM,1.007
same,"Burkin Assay in Myoblasts, signal relative to DMSO",[2]; 5 uM,0.9389
same,"Burkin Assay in Myoblasts, signal relative to DMSO",[2]; 10 uM,0.9838
same,"Burkin Assay in Myoblasts, signal relative to DMSO",[2]; 20 uM,0.5087
same,"Burkin Assay in Myoblasts, signal relative to DMSO",[2]; 40 uM,0.3444
same,"CMV-LACZ in Myotubes, signal relative to DMSO",[3]; 0.5 uM,1.0552
same,"CMV-LACZ in Myotubes, signal relative to DMSO",[3]; 1 uM,0.9752
same,"CMV-LACZ in Myotubes, signal relative to DMSO",[3]; 5 uM,1.0186
same,"CMV-LACZ in Myotubes, signal relative to DMSO",[3]; 10 uM,1.1035
same,"CMV-LACZ in Myotubes, signal relative to DMSO",[3]; 20 uM,1.1040
same,"CMV-LACZ in Myotubes, signal relative to DMSO",[3]; 40 uM,1.1540
same,CMV-LACZ in Myoblasts (β-galactosidase activity relative to DMSO),[4]; 0.5 uM,1.1220
same,CMV-LACZ in Myoblasts (β-galactosidase activity relative to DMSO),[4]; 1 uM,0.9103
same,CMV-LACZ in Myoblasts (β-galactosidase activity relative to DMSO),[4]; 5 uM,0.8929
same,CMV-LACZ in Myoblasts (β-galactosidase activity relative to DMSO),[4]; 10 uM,0.9052
same,CMV-LACZ in Myoblasts (β-galactosidase activity relative to DMSO),[4]; 20 uM,1.3344
same,CMV-LACZ in Myoblasts (β-galactosidase activity relative to DMSO),[4]; 40 uM,0.2105
